Experimental data from US9434727B2, “Substituted 4-phenylpiperidines, their preparation and use” (THE TRUSTEES OF COLUMBIA UNIVERSITY IN THE CITY OF NEW YORK, priority 2014, dated 2016).

Assays:
RBP4 = RBP4 (Homo sapiens (Human), UniProt P02753); test: Scintillation proximity (SPA) RBP4 binding assay; conditions: 10 nM 3H-Retinol, 50 nM biotinylated RBP4
Procedure: Scintillation Proximity RBP4 Binding Assay
Untagged human RBP4 purified from urine of tubular proteinuria patients was purchased from Fitzgerald Industries International. It was biotinylated using the EZ-Link Sulfo-NHS-LC-Biotinylation kit from Pierce following the manufacturer's recommendations. Binding experiments were performed in 96-well plates (OptiPlate, PerkinElmer) in a final assay volume of 100 μl per well in SPA buffer (IX PBS, pH 7.4, 1 mM EDTA, 0.1% BSA, 0.5% CHAPS). The reaction mix contained 10 nM ^3H-Retinol (48.7 Ci/mmol; PerkinElmer), 0.3 mg/well Streptavidin-PVT beads, 50 nM biotinylated RBP4 and a test compound. Nonspecific binding was determined in the presence of 20 μM of unlabeled retinol. The reaction mix was assembled in the dark under dim red light. The plates were sealed with clear tape (TopSeal-A: 96-well microplate, PerkinElmer), wrapped in the aluminum foil, and allowed to equilibrate 6 hours at room temperature followed by overnight incubation at +4° C. Radiocounts were measured using a TopCount NXT counter (Packard Instrument Company).

RBP4-TTR interaction = RBP4-TTR interaction (Homo sapiens (Human), UniProt P02753); test: TR-FRET (HTRF) assay for retinol-induced RBP4-TTR interaction; assay type: biochemical; conditions: in the presence of 1 μM retinol; read-out: HTRF assay for antagonists of RBP4-TTR interaction: IC50
Text: TR-FRET assay for retinol-induced RBP4-TTR interaction Binding of a desired RBP4 antagonist displaces retinol and induces hindrance for RBP4-TTR interaction resulting in the decreased FRET signal (FIG. 7). Bacterially expressed MBP-RBP4 and untagged TTR were used in this assay. […] Following cell lysis, recombinant RBP4 was purified from the soluble fraction using the ACTA FPLC system (GE Healthcare) equipped with the 5-ml the MBP Trap HP column. Human untagged TTR was purchased from Calbiochem. Untagged TTR was labeled directly with Eu^3+ Cryptate-NHS using the HTRF Cryptate Labeling kit from CisBio following the manufacturer's recommendations. HTRF assay was performed in white low volume 384 well plates (Greiner-Bio) in a final assay volume of 16 μl per well. The reaction buffer contained 10 mM Tris-HCl pH 7.5, 1 mM DTT, 0.05% NP-40, 0.05% Prionex, 6% glycerol, and 400 mM KF. […] Titration of test compounds in this assay was conducted in the presence of 1 μM retinol. All reactions were assembled in the dark under dim red light and incubated overnight at +4° C. wrapped in aluminum foil. TR-FRET signal was measured in the SpectraMax M5e Multimode Plate Reader (Molecular Device). […] The TR-FRET signal was expressed as the ratio of fluorescence intensity: Flu665/Flu620×10,000.

For `O=C(c1ccccc1)N1Cc2[nH]nc(C(=O)N3CCC(c4ccc(F)c(F)c4C(F)(F)F)CC3)c2C1` [Compound 102, (5-benzoyl-1,4,5,6-tetrahydropyrrolo[3,4-c]pyrazol-3-yl)(4-(3,4-difluoro-2-(trifluoromethyl)phenyl)piperidin-1-yl)methanone], the IC50 (RBP4) was 21.7 nM and the IC50 (RBP4-TTR interaction) was 27.6 nM.

`O=C(c1cccnc1)N1Cc2[nH]nc(C(=O)N3CCC(c4ccc(F)c(F)c4C(F)(F)F)CC3)c2C1` [Compound 104, (4-(3,4-difluoro-2-(trifluoromethyl)phenyl)piperidin-1-yl)(5-nicotinoyl-1,4,5,6-tetrahydropyrrolo[3,4-c]pyrazol-3-yl)methanone] showed an IC50 (RBP4) of 18.9 nM and an IC50 (RBP4-TTR interaction) of 21.8 nM.

With `O=C(c1n[nH]c2c1CN(C(=O)N1CCCC1)C2)N1CCC(c2ccc(F)c(F)c2C(F)(F)F)CC1` [Compound 106, (4-(3,4-difluoro-2-(trifluoromethyl)phenyl)piperidin-1-yl)(5-(pyrrolidine-1-carbonyl)-1,4,5,6-tetrahydropyrrolo[3,4-c]pyrazol-3-yl)methanone] the IC50 (RBP4) was 20.4 nM and the IC50 (RBP4-TTR interaction) was 29.8 nM.

In the case of `O=C(c1n[nH]c2c1CN(CC(F)(F)F)C2)N1CCC(c2ccc(F)c(F)c2C(F)(F)F)CC1` [Compound 107], the IC50 (RBP4) is reported as 23.4 nM and the IC50 (RBP4-TTR interaction) is reported as 77 nM.

For `O=C(c1n[nH]c2c1CN(CCC(F)(F)F)C2)N1CCC(c2ccc(F)c(F)c2C(F)(F)F)CC1` [Compound 108, (4-(3,4-difluoro-2(trifluoromethyl)phenyl)piperidin-1-yl)(5-(3,3,3-trifluoropropyl)-1,4,5,6-tetrahydropyrrolo[3,4-c]pyrazol-3-yl)methanone], the IC50 (RBP4) was 25.2 nM and the IC50 (RBP4-TTR interaction) was 49.5 nM.

In the case of `COCCN1Cc2[nH]nc(C(=O)N3CCC(c4ccc(F)c(F)c4C(F)(F)F)CC3)c2C1` [Compound 109, (4-(3,4-difluoro-2(trifluoromethyl)phenyl)piperidin-1-yl)(5-(2-methoxyethyl)-1,4,5,6-tetrahydropyrrolo[3,4-c]pyrazol-3-yl)methanone], the IC50 (RBP4) is reported as 14.9 nM and the IC50 (RBP4-TTR interaction) is reported as 41.9 nM.

With `N#CN1Cc2[nH]nc(C(=O)N3CCC(c4ccc(F)c(F)c4C(F)(F)F)CC3)c2C1` [Compound 110, 3-(4-(3,4-difluoro-2-(trifluoromethyl)phenyl)piperidine-1-carbonyl)-4,6-dihydropyrrolo[3,4-c]pyrazole-5(1H)-carbonitrile] the IC50 (RBP4) was 15.6 nM and the IC50 (RBP4-TTR interaction) was 15.4 nM.

With `CCN1CCc2c(C(=O)N3CCC(c4ccc(F)c(F)c4C(F)(F)F)CC3)n[nH]c2C1` [Compound 111, (4-(3,4-Difluoro-2-(trifluoromethyl)phenyl)piperidin-1-yl)(6-ethyl-4,5,6,7-tetrahydro-1H-pyrazolo[3,4-c]pyridin-3-yl)methanone] the IC50 (RBP4) was 6.89 nM and the IC50 (RBP4-TTR interaction) was 22.1 nM.

`CNC(=O)N1CCc2[nH]nc(C(=O)N3CCC(c4cccc(F)c4C(F)(F)F)CC3)c2C1` [Compound 114, 3-(4-(3-Fluoro-2-(trifluoromethyl)phenyl)piperidine-1-carbonyl)-N-methyl-6,7-dihydro-1H-pyrazolo[4,3-c]pyridine-5(4)-carboxamide] showed an IC50 (RBP4) of 10.3 nM and an IC50 (RBP4-TTR interaction) of 40.8 nM.

In the case of `O=C(O)CN1CCc2c(C(=O)N3CCC(c4ccc(F)c(F)c4C(F)(F)F)CC3)n[nH]c2C1` [Compound 115, 2-(3-(4-(3,4-Difluoro-2-(trifluoromethyl)phenyl)piperidine-1-carbonyl)-1,4,5,7-tetrahydro-6H-pyrazolo[3,4-c]pyridin-6-yl)acetic acid], the IC50 (RBP4) is reported as 18.9 nM and the IC50 (RBP4-TTR interaction) is reported as 109 nM.

Molecule `COC(=O)N1CCc2c(C(=O)N3CCC(c4ccc(F)c(F)c4C(F)(F)F)CC3)n[nH]c2C1` [Compound 116, Methyl 3-(4-(3,4-difluoro-2-(trifluoromethyl)phenyl)piperidine-1-carbonyl)-1,4,5,7-tetrahydro-6H-pyrazolo[3,4-c]pyridine-6-carboxylate] has an IC50 (RBP4) of 11.4 nM and an IC50 (RBP4-TTR interaction) of 23.7 nM.

With `O=C(c1n[nH]c2c1CCN(C1COC1)C2)N1CCC(c2ccc(F)c(F)c2C(F)(F)F)CC1` [Compound 117, (4-(3,4-Difluoro-2-(trifluoromethyl)phenyl)piperidin-1-yl)(6-(oxetan-3-yl)-4,5,6,7-tetrahydro-1H-pyrazolo[3,4-c]pyridin-3-yl)methanone] the IC50 (RBP4) was 5.48 nM and the IC50 (RBP4-TTR interaction) was 37.7 nM.

For `O=C(c1n[nH]c2c1CCN(CC1CC1)C2)N1CCC(c2ccc(F)c(F)c2C(F)(F)F)CC1` [Compound 118, (6-(Cyclopropylmethyl)-4,5,6,7-tetrahydro-1Hpyrazolo[3,4-c]pyridin-3-yl)(4-(3,4-difluoro-2-(trifluoromethyl)phenyl)piperidin-1-yl)methanone], the IC50 (RBP4) was 9.39 nM and the IC50 (RBP4-TTR interaction) was 14.2 nM.

Molecule `O=C(c1n[nH]c2c1CCN(CCC(F)(F)F)C2)N1CCC(c2ccc(F)c(F)c2C(F)(F)F)CC1` [Compound 119, (4-(3,4-Difluoro-2(trifluoromethyl)phenyl)piperidin-1-yl)(6-(3,3,3-trifluoropropyl)-4,5,6,7-tetrahydro-1H-pyrazolo[3,4-c]pyridin-3-yl)methanone] has an IC50 (RBP4) of 10.7 nM and an IC50 (RBP4-TTR interaction) of 39.4 nM.

`CCC(=O)N1CCc2c(C(=O)N3CCC(c4ccc(F)c(F)c4C(F)(F)F)CC3)n[nH]c2C1` [Compound 122, 1-(3-(4-(3,4-Difluoro-2-(trifluoromethyl)phenyl)piperidine-1-carbonyl)-1,4,5,7-tetrahydro-6H-pyrazolo[3,4-c]pyridin-6-yl)propan-1-one] was tested, and the IC50 (RBP4) was 17 nM and the IC50 (RBP4-TTR interaction) was 27.7 nM.

In the case of `CC(C)CC(=O)N1CCc2c(C(=O)N3CCC(c4ccc(F)c(F)c4C(F)(F)F)CC3)n[nH]c2C1` [Compound 123, 1-(3-(4-(3,4-Difluoro-2-(trifluoromethyl)phenyl)piperidine-1-carbonyl)-1,4,5,7-tetrahydro-6H-pyrazolo[3,4-c]pyridin-6-yl)-3-methylbutan-1-one], the IC50 (RBP4) is reported as 15.1 nM and the IC50 (RBP4-TTR interaction) is reported as 52.2 nM.

`CC(C)(C)CN1CCc2c(C(=O)N3CCC(c4ccc(F)c(F)c4C(F)(F)F)CC3)n[nH]c2C1` [Compound 126, (4-(3,4-Difluoro-2(trifluoromethyl)phenyl)piperidin-1-yl)(6-neopentyl-4,5,6,7-tetrahydro-1H-pyrazolo[3,4-c]pyridin-3-yl)methanone] was tested, and the IC50 (RBP4) was 17 nM and the IC50 (RBP4-TTR interaction) was 170 nM.

`COCCN1CCc2[nH]nc(C(=O)N3CCC(c4cc(F)cc(F)c4C(F)(F)F)CC3)c2C1` [Compound 127, (4-(3,5-Difluoro-2-(trifluoromethyl)phenyl)piperidin-1-yl)(5-(2-methoxyethyl)-4,5,6,7-tetrahydro-1H-pyrazolo[4,3-c]pyridin-3-yl)methanone] showed an IC50 (RBP4) of 15.9 nM and an IC50 (RBP4-TTR interaction) of 17 nM.

`O=C(c1n[nH]c2c1CN(CCC(F)(F)F)CC2)N1CCC(c2cc(F)cc(F)c2C(F)(F)F)CC1` [Compound 129, (4-(3,5-Difluoro-2-(trifluoromethyl)phenyl)piperidin-1-yl)(5-(3,3,3-trifluoropropyl)-4,5,6,7-tetrahydro-1H-pyrazolo[4,3-c]pyridin-3-yl)methanone] was tested, and the IC50 (RBP4) was 13.8 nM and the IC50 (RBP4-TTR interaction) was 19.5 nM.

In the case of `COC(=O)N1CCc2c(C(=O)N3CCC(c4cc(F)cc(F)c4C(F)(F)F)CC3)n[nH]c2C1` [Compound 130, Methyl 3-(4-(3,5-difluoro-2-(trifluoromethyl)phenyl)piperidine-1-carbonyl)-1,4,5,7-tetrahydro-6H-pyrazolo[3,4-c]pyridine-6-carboxylate], the IC50 (RBP4) is reported as 12.8 nM and the IC50 (RBP4-TTR interaction) is reported as 14.9 nM.
